US20150094217A1, “TEST FOR DIAGNOSING RESISTANCE TO AZACITIDINE” (UNIVERSITÉ NICE SOPHIA ANTIPOLIS, priority 2012, published 2015)

Experiments:
[1] = tested on: SKM1-S cells; assay: Cell metabolism by XTT test after azacitidine stimulation; type: cell-based; conditions: 1 μM azacitidine, 24 h
Description: The SKM1-S and SKM1-R cells are transfected with an interfering RNA:Luc siRNA, BCL2L10 siRNA or Bcl-2 siRNA. After 72 h of transfection, the cells are stimulated with 1 μM of azacitidine.
In FIG. 7, the cell metabolism is measured 24 hours after stimulation by means of the XTT test ([…]). The results shown correspond to the average standard error of the mean (±SEM) of three independent experiments performed four times.
To determine whether the overexpression of BCL2L10 is a cause rather than a consequence of azacitidine resistance, the SKM1-S and SKM1-R cells were transfected with a control siRNA or with siRNA directed against one or the other of the BCL2L10 or Bcl-2 proteins, then treated for 24 h with or without azacitidine, before determining cell viability and apoptosis. […] In addition, apoptosis was the main mechanism by which the extinction of the expression of the BCL2L10 gene enabled azacitidine sensitization by increasing the quantity of active caspase-3.

[2] = Overall survival (Kaplan-Meier) of MDS or AML patients treated with AZA, cohort 1; type: in vivo, human
Text: The comparison of the overall survival with transplantation according to Kaplan-Meier was examined for patients with MDS or AML treated with AZA, as well as the percentage of cells expressing BCL2L10 in their bone marrow.
An overall survival of 3 months was estimated at 95% for the sub-groups weakly expressing BCL2L10 compared with 51% for the sub-groups strongly expressing BCL2L10. For all of the patients in the sub-group strongly expressing BCL2L10, the disease progressed.

## Nc1ncn([C@@H]2O[C@H](CO)[C@@H](O)[C@H]2O)c(=O)n1 [Azacitidine]
[1]
  cell metabolism: loss in cell metabolism
[2]; sub-groups strongly expressing BCL2L10, cohort 1
  overall survival of 3 months: 51%
[2]; sub-groups weakly expressing BCL2L10, cohort 1
  overall survival of 3 months: 95%
